From patent US6793938B2, “Biodegradable compositions for the controlled release of encapsulated substances” (Skye Pharma, Inc., priority 1998, dated 2004)

Experiment: Serum amikacin after single oral administration by gavage
Format: in vivo, male Harlan Sprague Dawley albino rats
Conditions: rat, 20 mg amikacin per rat
Protocol: The lipid-only, 1:1 lipid/polymer and the polymer-only pharmaceutical compositions with amikacin encapsulated therein, or unencapsulated amikacin as a solution at pH 8 was administered orally by gavage to 300 g male Harlan Sprague Dawley albino rats. The number of animals per group was six. The dose was 20 mg per rat and the volume was 2 mL. Serum was collected via venipuncture (saphenous vein) from unanesthetized animals at 15, 45, 90 min., 3, 8, 24, and 48 hours. The specimens were kept at −40° C. until analysis.
The concentration of amikacin in serum was determined using a competitive particle concentration fluorescence immunoassay. Polystyrene beads (Idexx Research Product Division, Memphis, Tenn.) were first coated with anti-amikacin antibody (The Binding Site, San Diego, Calif.). The beads were incubated with a combination of fluorescent-labeled amikacin (The Binding Site) and serum containing amikacin which compete for the anti-amikacin antibody sites on the beads. The amount of fluorescent-labeled amikacin bound to the beads was measured by a fluorescence concentration analyzer (Idexx Research Product Division) which is inversely proportional to the amikacin concentration in serum.

peak level of the concentration of amikacin in circulation: 1.82 ± 0.73 µg/mL | time at which peak circulatory levels were reached: 45 min
Structure (SMILES): NCC[C@H](O)C(=O)N[C@@H]1C[C@H](N)[C@@H](O[C@H]2O[C@H](CN)[C@@H](O)[C@H](O)[C@H]2O)[C@H](O)[C@H]1O[C@H]1O[C@H](CO)[C@@H](O)[C@H](N)[C@H]1O [unencapsulated amikacin, amikacin]
